The record followed here is US20260226061A1, “COMPOSITIONS USEFUL FOR MODULATING SPLICING” (Skyhawk Therapeutics, Inc., priority 2023, published 2026).

The assay concerns ATXN3 pre-mRNA. As to the kind of experiment: ATXN3 Quantitative Splicing Assay (qPCR, E4E5 primers/probe, transcripts containing exon 4). As to conditions: Human neuroblastoma SK-N-MC cells, 24 h treatment, 30 μM to 0.6 nM; read-out: ATXN3 Potency - Splicing E4E5 IC50. Type of assay: cell-based. Here is the method:
Human neuroblastoma SK-N-MC cells were plated in 384-well plates at 20,000 cells/well. Twenty-four hours after plating, cells were treated with compounds for 24 h at appropriate concentrations ranging from 30 μM to 0.6 nM (0.3% DMSO). Treated cells were lysed in 15 μL of lysis buffer, and cDNA was synthesized using the Fast Advanced Cells-to-Ct kit. Two μL of each cDNA was used in qPCR reactions to confirm the exon 4 skipped transcripts of ATXN3. A second set of primers/probe E4E5 was used to detect the transcripts containing exon 4. The third set of primers/probe E8E9 was used to detect total gene level of ATXN3. The qPCR reactions were prepared in 384-well plates in 10 μL volume, using TaqMan™ Fast Advanced Master Mix with primers and probes shown in the table below. Reactions were run in a Quant Studio 6 qPCR instrument with default settings.
The primers and probes are listed below in Table 3.
`N[C@H](Cc1cc2c(NCc3ccccc3F)nc(Cl)nn2c1Cl)CC1CC1` [Compound 12, (S)-6-(2-amino-3-cyclopropylpropyl)-2,7-dichloro-N-(2-fluorobenzyl)pyrrolo[2,1-f][1,2,4]triazin-4-amine]: the IC50 is 501 to 5000 nM.
`Cc1c(C[C@@H](N)[C@H](C)F)cc2c(NCc3ccccc3)nc(Cl)nn12` [Compound 7, 6-((2R,3S)-2-amino-3-fluorobutyl)-N-benzyl-2-chloro-7-methylpyrrolo[2,1-f][1,2,4]triazin-4-amine]: the IC50 lay within 501 to 5000 nM.
In the case of `C[C@H](F)[C@H](N)Cc1cc2c(NCc3ccc(F)cc3)nc(Cl)nn2c1Br` [Compound 1, 6-((2R,3S)-2-amino-3-fluorobutyl)-7-bromo-2-chloro-N-(4-fluorobenzyl)pyrrolo[2,1-f][1,2,4]triazin-4-amine], the IC50 lay in the range of 501 to 5000 nM.
As for `N[C@H](Cc1cc2c(NCc3ccccc3)nc(Cl)nn2c1Br)CC1CC1` [Compound 9, (S)-6-(2-amino-3-cyclopropylpropyl)-N-benzyl-7-bromo-2-chloropyrrolo[2,1-f][1,2,4]triazin-4-amine], the IC50 was in the range of 501 to 5000 nM.
As to `C[C@H](F)[C@H](N)Cc1cc2c(NCc3ccc(F)cc3)nc(Cl)nn2c1Cl` [Compound 2, 6-((2R,3S)-2-amino-3-fluorobutyl)-2,7-dichloro-N-(4-fluorobenzyl)pyrrolo[2,1-f][1,2,4]triazin-4-amine], the IC50 fell in the range of 501 to 5000 nM.
Turning to `Cc1c(C[C@@H](N)CC2CC2)cc2c(NCc3ccccc3F)nc(Cl)nn12` [Compound 14, (S)-6-(2-amino-3-cyclopropylpropyl)-2-chloro-N-(2-fluorobenzyl)-7-methylpyrrolo[2,1-f][1,2,4]triazin-4-amine], the IC50 was 5000 to 10000 nM.
Take `Cc1c(C[C@@H](N)CC2CC2)cc2c(NCc3ccccc3)nc(Cl)nn12` [Compound 13, (S)-6-(2-amino-3-cyclopropylpropyl)-N-benzyl-2-chloro-7-methylpyrrolo[2,1-f][1,2,4]triazin-4-amine]: the IC50 was in the range of 5000 to 10000 nM.
For `C[C@H](F)[C@H](N)Cc1cc2c(NCc3ccccc3F)nc(Cl)nn2c1Br` [Compound 4, 6-((2R,3S)-2-amino-3-fluorobutyl)-7-bromo-2-chloro-N-(2-fluorobenzyl)pyrrolo[2,1-f][1,2,4]triazin-4-amine], the IC50 is 101 to 500 nM.
As to `C[C@H](F)[C@H](N)Cc1cc2c(NCc3ccccc3)nc(Cl)nn2c1Br` [Compound 3, 6-((2R,3S)-2-amino-3-fluorobutyl)-N-benzyl-7-bromo-2-chloropyrrolo[2,1-f][1,2,4]triazin-4-amine], the IC50 fell in the range of 101 to 500 nM.
For `Cc1c(C[C@@H](N)[C@H](C)F)cc2c(NCc3ccccc3F)nc(Cl)nn12` [Compound 8, 6-((2R,3S)-2-amino-3-fluorobutyl)-2-chloro-N-(2-fluorobenzyl)-7-methylpyrrolo[2,1-f][1,2,4]triazin-4-amine] the value was 101 to 500 nM.
Turning to `N[C@H](Cc1cc2c(NCc3ccccc3F)nc(Cl)nn2c1Br)CC1CC1` [Compound 10, (S)-6-(2-amino-3-cyclopropylpropyl)-7-bromo-2-chloro-N-(2-fluorobenzyl)pyrrolo[2,1-f][1,2,4]triazin-4-amine], the half-maximal inhibitory concentration (IC50) lay in the range of 501 to 5000 nM.
For `C[C@H](F)[C@H](N)Cc1cc2c(NCc3ccccc3)nc(Cl)nn2c1Cl` [Compound 6, 6-((2R,3S)-2-amino-3-fluorobutyl)-N-benzyl-2,7-dichloropyrrolo[2,1-f][1,2,4]triazin-4-amine], the IC50 lay within 101 to 500 nM.
On to `C[C@H](F)[C@H](N)Cc1cc2c(NCc3ccccc3F)nc(Cl)nn2c1Cl` [Compound 5, 6-((2R,3S)-2-amino-3-fluorobutyl)-2,7-dichloro-N-(2-fluorobenzyl)pyrrolo[2,1-f][1,2,4]triazin-4-amine], for which the IC50 is 101 to 500 nM.
On to `N[C@H](Cc1cc2c(NCc3ccccc3)nc(Cl)nn2c1Cl)CC1CC1` [Compound 11, (S)-6-(2-amino-3-cyclopropylpropyl)-N-benzyl-2,7-dichloropyrrolo[2,1-f][1,2,4]triazin-4-amine], for which the IC50 lay within 501 to 5000 nM.
